Measured values: US11273200B2, “Immunotherapy against several tumors including gastrointestinal and gastric cancer” (Immatics Biotechnologies GmbH, priority 2010, dated 2022)

Columns and labels:
CD8+ T cells [1] = test: In vitro immunogenicity of HLA-A*2402 restricted TUMAPs: priming of CD8+ T cells with pMHC/anti-CD28 coated beads (aAPC), multimer staining; type: cell-based, human; settings: HLA-A*2402 peptides, healthy donors, three stimulation cycles; for Wells positive/evaluable [%]: at least 48 wells evaluable; for Donors positive/evaluable [%]: at least four donors evaluable
Excerpt: (§1) In order to perform in vitro stimulations by artificial antigen presenting cells (aAPC) loaded with peptide-MHC complex (pMHC) and anti-CD28 antibody, we first isolated CD8 T cells from fresh HLA-A*24 leukapheresis products or from HLA-A*2 buffy coats of healthy donors obtained from the Blood Bank Tuebingen.
(§2) CD8 T cells were either directly enriched or PBMCs (peripheral blood mononuclear cells) were isolated first by using standard gradient separation medium (PAA, Colbe, Germany). Isolated CD8 lymphocytes or PBMCs were incubated until use in T-cell medium (TCM) consisting of RPMI-Glutamax (Invitrogen, Karlsruhe, Germany) supplemented with 10% heat inactivated human AB serum (PAN-Biotech, Aidenbach, Germany), 100 U/ml Penicillin/100 μg/ml Streptomycin (Cambrex, Cologne, Germany), 1 mM sodium pyruvate (CC Pro, Oberdorla, Germany), 20 μg/ml Gentamycin (Cambrex). […] Isolation of CD8+ lymphocytes was performed by positive selection using CD8 MicroBeads (Miltenyi Biotec, Bergisch-Gladbach, Germany).
(§3) 800.000 beads/200 μl were coated in 96-well plates in the presence of 600 ng biotin-anti-CD28 plus 200 ng relevant biotin-pMHC (high density beads). […] Half of the medium was then exchanged by fresh TCM supplemented with 80 U/ml IL-2 and incubation was continued for 3-4 days at 37° C. This stimulation cycle was performed for a total of three times.
(§4) In vitro priming of specific multimer+ CD8+ lymphocytes was detected by appropriate gating and by comparing to negative control stimulations.

CD8+ T cells [2] = test: In vitro immunogenicity of HLA-A*0201 restricted TUMAPs: priming of CD8+ T cells with pMHC/anti-CD28 coated beads (aAPC), multimer staining; type: cell-based, human; settings: HLA-A*0201 peptides, healthy donors, three stimulation cycles; for Wells positive/evaluable [%]: at least 48 wells evaluable; for Donors positive/evaluable [%]: at least four donors evaluable
Excerpt: as §1, §2, §3, §4

[3] = described in other applications by immatics; vaccines IMA901, IMA910; cited from earlier work

Substance	Wells positive/evaluable [%] (CD8+ T cells [1])	Donors positive/evaluable [%] (CD8+ T cells [1])	Wells positive/evaluable [%] (CD8+ T cells [2])	Donors positive/evaluable [%] (CD8+ T cells [2])	in vivo reactions [3]
DYAYLREHF (listed as Homo sapiens) [ZNF598-001]	17	83	–	–	–
VYTTMAEHF (listed as Homo sapiens) [TSPAN1-002]	1	17	–	–	–
IYAPKLQEF (listed as Homo sapiens) [CCNE2-001]	0	0	–	–	–
AYLVYTDRL (listed as Homo sapiens) [PPAP2C-001]	29	83	–	–	–
FYISPVNKL (listed as Homo sapiens) [AVL9-001]	31	100	–	–	–
AYPTVKFYF (listed as Homo sapiens) [DNAJC10-002]	3	33	–	–	–
VYLLNSTTL (listed as Homo sapiens) [CLCN3-001]	6	33	–	–	–
SYIDVLPEF (listed as Homo sapiens) [MET-006]	21	67	–	–	–
TYGNLLDYL (listed as Homo sapiens) [ABL1-001]	18	83	–	–	–
IYPDASLLI (listed as Homo sapiens) [CEA-010]	3	40	–	–	–
SYNVTSVLF (listed as Homo sapiens) [LCN2-001]	1	17	–	–	–
HYKPTPLYF (listed as Homo sapiens) [SMC4-001]	10	73	–	–	–
RYLPKGFLNQF (listed as Homo sapiens) [PTK2-001]	4	17	–	–	–
QYIDKLNEL (listed as Homo sapiens) [CCDC88A-001]	0	0	–	–	–
YYNAAGFNKL (listed as Homo sapiens) [UQCRB-001]	24	83	–	–	–
SYQKVIELF (listed as Homo sapiens) [PBK-001]	0	0	–	–	–
VWSDVTPLTF (listed as Homo sapiens) [MMP11-001]	11	33	–	–	–
VYPNWAIGL (listed as Homo sapiens) [SLC6A6-001]	1	17	–	–	–
NYLPFIMEL (listed as Homo sapiens) [UCHL5-001]	12	75	–	–	–

Substance	Wells positive/evaluable [%] (CD8+ T cells [1])	Donors positive/evaluable [%] (CD8+ T cells [1])	Wells positive/evaluable [%] (CD8+ T cells [2])	Donors positive/evaluable [%] (CD8+ T cells [2])	in vivo reactions [3]
FYQPKIQQF (listed as Homo sapiens) [FANCI-001]	1	17	–	–	–
VYGIRLEHF (listed as Homo sapiens) [NUF2-001]	50	100	–	–	–
VYIEKNDKL (listed as Homo sapiens) [ERBB3-001]	–	83	–	–	–
AYAIIKEEL (listed as Homo sapiens) [ATAD2-001]	3	33	–	–	–
LYPEVFEKF (listed as Homo sapiens) [ATAD2-003]	0	0	–	–	–
SYLELVKSL (listed as Homo sapiens) [SDHC-001]	3	33	–	–	–
VYKVVGNLL (listed as Homo sapiens) [IQGAP3-001]	24	100	–	–	–
KYNDTFWKEF (listed as Homo sapiens) [HSP90B1-001]	7	50	–	–	–
VFIFKGNQF (listed as Homo sapiens) [MMP3-001]	1	11	–	–	–
SYNPLWLRI (listed as Homo sapiens) [ASPM-002]	32	67	–	–	–
VYTTSYQQI (listed as Homo sapiens) [NFYB-001]	7	50	–	–	–
IYNGKLFDLL (listed as Homo sapiens) [KIF2C-001]	2	17	–	–	–
SYATLLHVL (listed as Homo sapiens) [GPR39-001]	6	50	–	–	–
RYLEGTSCI (listed as Homo sapiens) [EPPK1-001]	1	17	–	–	–
RYLPQCSYF (listed as Homo sapiens) [CCND2-001]	10	17	–	–	–
KIQEILTQV (listed as Homo sapiens) [IGF2BP3-001]	–	–	21	50	–
DYTIGFGKF (listed as Homo sapiens) [ITGB4-001]	20	67	–	–	–
MYMTVSIIDRF (listed as Homo sapiens) [CCNB1-003]	3	33	–	–	–
VYNPTPNSL (listed as Homo sapiens) [COL12A1-001]	0	0	–	–	–

Substance	Wells positive/evaluable [%] (CD8+ T cells [1])	Donors positive/evaluable [%] (CD8+ T cells [1])	Wells positive/evaluable [%] (CD8+ T cells [2])	Donors positive/evaluable [%] (CD8+ T cells [2])	in vivo reactions [3]
VYFSKSEQL (listed as Homo sapiens) [EPHA2-005]	0	0	–	–	–
NYEETFPHI (listed as Homo sapiens) [MUC6-001]	22	83	–	–	–
YYYVGFAYL (listed as Homo sapiens) [EIF'3L-001]	29	100	–	–	–
KIFDEILVNA (listed as Homo sapiens) [TOP-001]	–	–	10	40	–
RYLWATVTI (listed as Homo sapiens) [ASPM-001]	3	17	–	–	–
RFLSGIINF (listed as Homo sapiens) [NUF2-002]	6	50	–	–	–
SYIIDPLNL (listed as Homo sapiens) [PROM1-001]	26	83	–	–	–
KYLTVKDYL (listed as Homo sapiens) [ATAD2-002]	1	17	–	–	–
YVDPVIT SI (YVDPVITSI; listed as Homo sapiens) [MET-001]	–	–	42	67	extremely good in vivo reactions
IFSKIVSLF (listed as Homo sapiens) [EIF2S3-001]	1	17	–	–	–
NYLLYVSNF (listed as Homo sapiens) [MST1R-001]	13	50	–	–	–
LYQILQGIVF (listed as Homo sapiens) [CDC2-001]	28	83	–	–	–
SYLQAANAL (listed as Homo sapiens) [COL6A3-001]	0	0	–	–	–
LYLENIDEF (listed as Homo sapiens) [POLD3-001]	7	67	–	–	–
VFDTAIAHLF (listed as Homo sapiens) [SIAH2-001]	8	50	–	–	–
VYISSLALL (listed as Homo sapiens) [PSMD14-001]	1	17	–	–	–
IYLEVIHNL (listed as Homo sapiens) [DNAJC10-001]	15	50	–	–	–
QYASRFVQL (listed as Homo sapiens) [PLK4-001]	5	60	–	–	–
YYKNIGLGF (listed as Homo sapiens) [RPS11-001]	3	17	–	–	–
